This note sets out measurements from PubChem BioAssay (NCI).

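Growth conditions: 96-well plates. Treatment: test compound, 48 hours, 5 concentrations. Analysis: linear interpolation between bracketing concentrations; unreached endpoints set to highest concentration. The concentration for full growth arrest is given as TGI.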

Some test systems named below: ACHN renal; CAKI-1 renal; CCRF-CEM leukemia; HOP-62 NSCLC; HOP-92 NSCLC; K-562 leukemia; NCI-H522 lung; RPMI-8226 leukemia; SF-295 CNS; SF-539 CNS; SK-MEL-5 melanoma; SK-OV-3 ovarian; SR leukemia; UO-31 renal; HS 578T breast; IGROV1 ovarian; MDA-MB-231 breast; PC-3 prostate; T-47D breast.
Common to all, as to test: NCI-60 cell line screen, 48 h

With `Cc1ccc(NCC(=O)N2CC(=O)Nc3ccccc32)c(C)c1`, the TGI with ACHN renal, in the test with CAKI-1 renal, in the test with CCRF-CEM leukemia, in the test on HOP-62 NSCLC, in the test on HOP-92 NSCLC and in the test on K-562 leukemia was more than 100 µM throughout. Besides, the TGI with NCI-H522 lung, in the test on RPMI-8226 leukemia, in the test with SF-295 CNS, with SF-539 CNS, in the test with SK-MEL-5 melanoma and in the test with SK-OV-3 ovarian was more than 100 µM in each case. For the same molecule, the TGI in the test with SR leukemia and with UO-31 renal was more than 100 µM in each case.

Turning to `S=c1nc(N2CCCCC2)c2cn[nH]c2[nH]1`, the TGI in the test with ACHN renal is more than 100 µM; in the test on CAKI-1 renal it was more than 100 µM; with CCRF-CEM leukemia it was more than 100 µM; in the test with HOP-62 NSCLC, more than 100 µM; with HS 578T breast, more than 100 µM; in the test on IGROV1 ovarian, 56.5 µM. Besides, the TGI was more than 100 µM in the test with K-562 leukemia; more than 100 µM in the test on MDA-MB-231 breast; 41.4 µM with NCI-H522 lung; more than 100 µM with PC-3 prostate; more than 100 µM in the test with RPMI-8226 leukemia; more than 100 µM in the test on SF-295 CNS. Further, the TGI is more than 100 µM with SF-539 CNS; more than 100 µM with SK-MEL-5 melanoma; 40.7 µM in the test on SR leukemia; more than 100 µM in the test on T-47D breast; 77.9 µM in the test on UO-31 renal.

As for `O=c1cc(-c2ccccc2)c2ccccc2[nH]1`, the TGI with ACHN renal is more than 100 µM; with CAKI-1 renal, 90.2 µM; in the test with CCRF-CEM leukemia, more than 100 µM; in the test with HOP-62 NSCLC, more than 100 µM; in the test with HOP-92 NSCLC it was 48.1 µM; with IGROV1 ovarian, more than 100 µM. Further, the TGI in the test on K-562 leukemia was more than 100 µM; in the test with NCI-H522 lung, more than 100 µM; in the test with RPMI-8226 leukemia, more than 100 µM; in the test on SF-295 CNS, more than 100 µM; with SF-539 CNS, more than 100 µM; in the test on SK-MEL-5 melanoma, 93.2 µM. Moreover, the TGI is 84.8 µM with SK-OV-3 ovarian, more than 100 µM in the test with SR leukemia and 55.9 µM in the test with UO-31 renal.

On to `c1cncc(C2(c3cc4ccccc4[nH]3)COCO2)c1` (stereo unspecified), for which the TGI was more than 100 µM in the test with ACHN renal; more than 100 µM in the test on CAKI-1 renal; 56.6 µM in the test with CCRF-CEM leukemia; more than 100 µM in the test with HOP-62 NSCLC; more than 100 µM in the test on HOP-92 NSCLC; more than 100 µM in the test with HS 578T breast. Also, the TGI with IGROV1 ovarian, in the test on K-562 leukemia, in the test with MDA-MB-231 breast, in the test with PC-3 prostate, in the test with RPMI-8226 leukemia and in the test with SF-295 CNS was more than 100 µM in each case. For the same molecule, the TGI in the test on SF-539 CNS, in the test with SK-MEL-5 melanoma, in the test on SK-OV-3 ovarian, in the test with SR leukemia, with T-47D breast and in the test on UO-31 renal was more than 100 µM throughout.

On to `CS(=O)(=O)OC1CCC2(C#N)CCC1C2=O` (stereo unspecified), for which the TGI with ACHN renal, with CAKI-1 renal, in the test with CCRF-CEM leukemia, with HOP-62 NSCLC, in the test on IGROV1 ovarian and in the test with K-562 leukemia was more than 100 µM throughout. Besides, the TGI with NCI-H522 lung is more than 100 µM; in the test on RPMI-8226 leukemia it was 44.4 µM; in the test with SF-295 CNS, more than 100 µM; in the test with SF-539 CNS, more than 100 µM; in the test with SK-MEL-5 melanoma it was more than 100 µM; in the test with SK-OV-3 ovarian, more than 100 µM. The values for the TGI in the test on SR leukemia and with UO-31 renal were 44 µM and more than 100 µM, respectively.

On to `COc1cc(C=O)cc(/C=N/n2c3ccccc3c3ccccc32)c1O`, for which the TGI with ACHN renal is more than 100 µM; in the test with CAKI-1 renal, more than 100 µM; in the test on CCRF-CEM leukemia, more than 100 µM; in the test on HOP-62 NSCLC it was more than 100 µM; with HOP-92 NSCLC, 9.58 µM; with HS 578T breast it was more than 100 µM. Further, the TGI with K-562 leukemia was 67.7 µM; in the test with MDA-MB-231 breast, more than 100 µM; in the test with NCI-H522 lung, 73.2 µM; in the test with PC-3 prostate, more than 100 µM; in the test with RPMI-8226 leukemia, 46.2 µM; with SF-295 CNS, 18.6 µM. Further, the TGI in the test on SF-539 CNS, in the test with SK-OV-3 ovarian, with SR leukemia, in the test on T-47D breast and with UO-31 renal was more than 100 µM in each case.

For the molecule `COc1ccc(CCCCl)c(C2=NCCc3cc(OC)c(OC)cc32)c1`, the TGI in the test with ACHN renal, in the test on CAKI-1 renal, in the test on CCRF-CEM leukemia, in the test with HOP-62 NSCLC, in the test on HOP-92 NSCLC and with HS 578T breast was more than 100 µM in each case. Also, the TGI in the test on IGROV1 ovarian is more than 100 µM; in the test on K-562 leukemia, more than 100 µM; in the test on MDA-MB-231 breast, more than 100 µM; with NCI-H522 lung it was more than 100 µM; with PC-3 prostate, more than 100 µM; in the test with RPMI-8226 leukemia it was 28.5 µM. The TGI is more than 100 µM in the test with SF-295 CNS; more than 100 µM in the test with SF-539 CNS; 59.4 µM with SK-MEL-5 melanoma; more than 100 µM in the test on SK-OV-3 ovarian; more than 100 µM in the test with SR leukemia; more than 100 µM with T-47D breast. Moreover, the TGI with UO-31 renal was more than 100 µM.

For `Cc1c2ccncc2c(C)c2c1[nH]c1ccc(OC(C)C)cc12`, the TGI in the test with ACHN renal was found to be 2.56 µM; in the test with CAKI-1 renal, 2.96 µM; in the test on CCRF-CEM leukemia it was 7.68 µM; in the test with HOP-62 NSCLC it was 2.66 µM; in the test with HOP-92 NSCLC, 3.22 µM; in the test with IGROV1 ovarian, 2.79 µM. The TGI with K-562 leukemia was found to be 4.4 µM; in the test with NCI-H522 lung, 3.06 µM; in the test on RPMI-8226 leukemia, 5.12 µM; with SF-295 CNS, 2.73 µM; in the test with SF-539 CNS, 3.36 µM; in the test with SK-MEL-5 melanoma, 3.2 µM. Further, the values for the TGI in the test on SK-OV-3 ovarian, in the test on SR leukemia and in the test on UO-31 renal were 2.77 µM, 3.73 µM and 2.89 µM, respectively.

On to `CN1C2=C(CC3=C1CC(C)(C)CC3=O)C(=O)CC(C)(C)C2`, for which the TGI in the test with ACHN renal, in the test with CAKI-1 renal, with CCRF-CEM leukemia, with HOP-92 NSCLC, in the test on HS 578T breast and with IGROV1 ovarian was more than 100 µM in each case. In addition, the TGI with K-562 leukemia, in the test with PC-3 prostate, in the test on RPMI-8226 leukemia, in the test with SF-539 CNS, in the test with SK-MEL-5 melanoma and in the test with SK-OV-3 ovarian was more than 100 µM in each case. Besides, the TGI in the test with SR leukemia and in the test on UO-31 renal was more than 100 µM each time.

On to `O=C(O)c1cc(CC2Cc3cc4c(cc3C2=O)CCC4)cc2c1CCC2` (stereo unspecified), for which the TGI in the test with ACHN renal, in the test on CAKI-1 renal, in the test on CCRF-CEM leukemia, in the test on HOP-62 NSCLC, in the test with HS 578T breast and in the test with IGROV1 ovarian was more than 100 µM in each case. For the same molecule, the TGI with K-562 leukemia, in the test on MDA-MB-231 breast, with NCI-H522 lung, in the test with PC-3 prostate, with RPMI-8226 leukemia and with SF-295 CNS was more than 100 µM in each case. In addition, the TGI in the test with SF-539 CNS, in the test with SK-OV-3 ovarian, with SR leukemia, with T-47D breast and in the test with UO-31 renal was more than 100 µM throughout.

In the case of `O=c1ccn2n1Cc1ccccc1C2`, the TGI in the test on ACHN renal, in the test on CAKI-1 renal, in the test on CCRF-CEM leukemia, in the test with HOP-62 NSCLC, in the test with HOP-92 NSCLC and in the test with HS 578T breast was more than 100 µM each time. Besides, the TGI in the test on IGROV1 ovarian, with K-562 leukemia, with MDA-MB-231 breast, with NCI-H522 lung, with PC-3 prostate and in the test with RPMI-8226 leukemia was more than 100 µM throughout. Besides, the TGI in the test on SF-295 CNS, with SF-539 CNS, in the test on SK-MEL-5 melanoma, with SK-OV-3 ovarian, in the test on SR leukemia and in the test on T-47D breast was more than 100 µM each time. Further, the TGI with UO-31 renal was more than 100 µM.

As for `[N-]=[N+]=NC(CCl)c1cn([C@H]2C[C@H](O)[C@@H](CO)O2)c(=O)[nH]c1=O` (stereo partly specified), the TGI with ACHN renal, in the test on CAKI-1 renal, in the test with CCRF-CEM leukemia, in the test with HOP-62 NSCLC, with HOP-92 NSCLC and with IGROV1 ovarian was more than 100 µM throughout. For the same molecule, the TGI in the test with K-562 leukemia, with NCI-H522 lung, with RPMI-8226 leukemia, in the test with SF-295 CNS, in the test on SF-539 CNS and with SK-MEL-5 melanoma was more than 100 µM in each case. The TGI in the test with SK-OV-3 ovarian, with SR leukemia and in the test on UO-31 renal was more than 100 µM throughout.

Regarding `COc1ccc(/C=C2\CCC(CNc3ccc(S(N)(=O)=O)cc3)C2=O)cc1` (stereo unspecified), the TGI in the test on ACHN renal was 53.7 µM; with CAKI-1 renal, 19.3 µM; in the test on CCRF-CEM leukemia, 5.98 µM; in the test on HOP-62 NSCLC, more than 85.6 µM; with HOP-92 NSCLC it was 22.5 µM; with HS 578T breast, more than 91.1 µM. The TGI is 43.4 µM in the test with IGROV1 ovarian; 3.74 µM with K-562 leukemia; 35.5 µM in the test with MDA-MB-231 breast; 10.6 µM with NCI-H522 lung; 42.2 µM in the test with PC-3 prostate; more than 100 µM in the test with SF-295 CNS. The TGI in the test on SF-539 CNS was more than 59.2 µM; with SK-MEL-5 melanoma, 31.8 µM; with SK-OV-3 ovarian, more than 100 µM; in the test on T-47D breast, 43.1 µM; with UO-31 renal, 12.2 µM.
